Data set [1] concerns CLU. The conditions noted are these: Phase II studies (Chi et al., 2005); cited from earlier work.
A further data set deals with LNCaP cells. Put plainly: Apoptosis assays: propidium iodide flow cytometry (subG1) and western blotting. It is filed as cell-based, human. The conditions noted are these: 300 nM custirsen or ScrB twice, then 1 μM Hsp90 inhibitor. The method, then: FIG. 4. Increased potency of CLU knockdown and Hsp90 inhibitor combination treatment in PCa cells. A, LNCaP cells were treated twice with 300 nM custirsen or control ScrB ASO, followed by the indicated concentration of Hsp90i-1 or Hsp90i-2 for 48 h. Cell growth was determined by crystal violet and compared with control. B, dose dependent effects and combination index (CI) values calculated by CalcuSyn software were assessed in LNCap cells treated for 48 h with custirsen alone, Hsp90i-2 alone or combined treatment at indicated concentration with constant ratio design between both drugs. […] C and D, LNCaP cells were treated twice with 300 nM custirsen or control ScrB, followed by 1 μM Hsp90i-1 or Hsp90i-2 for 48 h. […] The proportion of cells in subG1, G0-G1, S, G2-M was determined by propidium iodide staining and caspase-3 activity was determined on the cell lysates and the results are expressed in arbitrary units and corrected for protein content (D). […]
Prostate cells lines were plated in appropriate media (DMEM or RPMI) with 5% FBS and treated with Hsp90i-2-PRO or Hsp90i-1 at indicated concentration and time and cell growth was measured using the crystal violet assay as described previously (Leung et al., 2000). Detection and quantitation of apoptotic cells were done by flow-cytometry (described below) and western blotting analysis. […]
(A flow cytometer gives signals particle by particle.)

In the next data set the test system is HSF-1. Put plainly: HSE-luciferase assay of HSF-1 activity. It is filed as cell-based, human. The method, then:
FIG. 3. CLU induction following Hsp90 inhibitor treatment is cytoprotective via an increase of HSF-1 activity. A, LNCaP cells were treated with indicated concentrations of Hsp90i-1 or Hsp90i-2 for 48 h. B, LNCaP cells were transiently transfected with indicated concentrations of CLU-plasmid for 48 h. Total amount of plasmid DNA transfected was normalized to 2 μg per well by the addition of an empty vector. C (Top), LNCaP cells were transfected with 20 nM CLU siRNA or control siScr, followed of Hsp90i-1 or Hsp90i-2 treatment (1 μM) for 48 h. C (bottom), LNCaP cells were treated twice with 300 nM custirsen or control ScrB ASO. D, LNCaP and PC-3 cells were treated twice with 300 nM custirsen or control ScrB ASO, followed by 1 μM of Hsp90i-1 or Hsp90i-2 for 48 h. Cells were harvested, and HSE-luciferase activity or western blotting analyses were performed. Means of at least three independent experiments done in triplicate. ***, p<0.001; *, p<0.05; ns, not significant.
LNCaP and C4-2 cells (2.5×10^5) were plated on six-plates and transfected using lipofectin (6 μL per well; Invitrogen Life Technologies, Inc.). The total amount HSE plasmids DNA used were normalized to 1 μg per well by the addition of a control plasmid. One μM HSP90i-2 or Hsp90i-1 was added 4 h after the transfection and for 48 h. HSE-luciferase activity was measured using Dual-Luciferase Reporter Assay System (Promega) with the aid of a microplate luminometer (EG&G Berthold). All experiments were carried out in triplicate wells and repeated 3 times using different preparations of plasmids.

The subject of data set [2] is castrate resistant LNCaP tumors. Put plainly: Castrate resistant LNCaP xenograft model. It is filed as in vivo. The conditions noted are these: for tumor volume: Hsp90i-2-PRO 25 mg/kg oral, ASO 15 mg/kg i.p. The method, then:
FIG. 6. […] Mice were treated with 25 mg/kg Hsp90i-2-PRO and 15 mg/kg custirsen starting when serum PSA values relapsed to pre-castration levels. […] Progression-free survival was defined as time for the first tumor volume doubling.
FIG. 7. […] A, tumors were collected after 57 days and CLU, Ki67, AR, AKT and TUNEL were evaluated by immunohistochemical analysis (original magnification: ×200). B, total proteins were extracted from the xenograft tumors and CLU, AR, Akt and PSA were analyzed by western blotting. The relative levels were normalized with vinculin and estimated in densitometric units±SEM.
(§1) Male athymic nude mice (Harlan Sprague-Dawley, Inc.) were injected s.c. with 2×10^6 LNCaP cells (suspended in 0.1 mL Matrigel; BD Biosciences). The mice were castrated once tumors reach between 300 and 500 mm^3 or the PSA level increased above 50 ng/mL. Once tumors progressed to castrate resistance, mice were randomly assigned to vehicle, Hsp90i-2-PRO alone, Hsp90i-2-PRO+ScrB ASO or Hsp90i-2-PRO+custirsen. Hsp90i-2-PRO (Prodrug, 25 mg/kg; formulation in 0.5% CMC+0.5% Tween-80) is orally administered three times per week and custirsen or ScrB ASO (15 mg/kg) was injected intra-peritoneally once daily for the first week and then three times per week. Each experimental group consisted of 10 mice. Tumor volume was measured twice weekly (length×width×depth×0.5432). Serum PSA was determined weekly by enzymatic immunoassay (Abbott IMX, Montreal, Quebec, Canada). PSA doubling time (PSAdt) and velocity were calculated by the log-slope method (PSAt=PSAinitial×emt). Data points were expressed as average tumor volume±SEM or average PSA concentration±SEM.
When tumor volume reached 10% of body weight, mice were sacrificed and tumors harvested for evaluation of protein expression by western blotting analyses and immunohistochemistry. All animal procedures were performed according to the guidelines of the Canadian Council on Animal Care and appropriate institutional certification.
Immunohistochemical stains were performed on formalin-fixed and paraffin-embedded 4 μm sections of tumor samples using adequate primary antibody, and the Ventana autostainer Discover XT (Ventana Medical System) with enzyme labeled biotin streptavidin system and solvent resistant 3,3′-diaminobenyidine Map kit. All comparisons of staining intensities were made at 200× magnifications.

The next data set deals with Hsp70. Nature of the data set: Hsp70 expression in CRPC LNCaP xenografts (immunohistochemistry). It is filed as in vivo, mice. The conditions noted are these: 50 mg/kg Hsp90i-2-PRO for 6 weeks. The method, then: (§2) FIG. 2. Hsp90i-2 induces HSP and CLU expression in PCa xenografts. Mice were treated for 6 weeks with 50 mg/kg Hsp90i-2-PRO (the prodrug of Hsp90i-2) or vehicle (Control). A, tumors were collected and CLU and Hsp70 were evaluated by immunohistochemical analysis. B, total proteins were extracted from the xenograft tumors and CLU expression was analyzed by western blotting. The relative levels were normalized with GAPDH and estimated in densitometric units. ***, p<0.001.
as §1, with “Hsp90i-2-PRO (Prodrug, 25 mg/kg; formulation in 0.5% CMC+0.5% Tween-80) is orally administered three times per week and custirsen or ScrB ASO (15 mg/kg) was injected intra-peritoneally once daily for the first week and then three times per week. Each experimental group consisted of 10 mice.” left out, “concentration±SEM. […]” for “concentration±SEM.”

Data set [3] deals with CLU. Nature of the data set: CLU expression in CRPC LNCaP xenografts (immunohistochemistry and western blot). It is filed as in vivo, mice. The conditions noted are these: 50 mg/kg Hsp90i-2-PRO for 6 weeks. The method, then:
as §2
as §1, with “Hsp90i-2-PRO (Prodrug, 25 mg/kg; formulation in 0.5% CMC+0.5% Tween-80) is orally administered three times per week and custirsen or ScrB ASO (15 mg/kg) was injected intra-peritoneally once daily for the first week and then three times per week. Each experimental group consisted of 10 mice.” left out, “concentration±SEM. […]” for “concentration±SEM.”
(In general: Immunoblotting shows a protein as a band on a membrane.)

Data set [4] is described as follows: Toxicity of Hsp90 inhibitor monotherapy. It is filed as in vivo. The conditions noted are these: 50 mg/kg/day.
Data set [5] relates to castrate resistant LNCaP tumors. The conditions noted are these: 50 mg/kg monotherapy, previous study (Lamoureux et al., 2011); cited from earlier work.
The conditions of data set [6]: 60 mg/kg/day (Glaze et al., 2005); cited from earlier work.
Where [7] appears, read: LNCaP cells, Hsp90 inhibitor at indicated concentrations 48 h, dose-dependent.

Where two headings read alike, the source gives them in different places. In the oligonucleotide strings, read from the 5' end, every base follows the letter of its sugar. An asterisk marks phosphorothioate; unmarked linkages are phosphodiester. Other units and linkages are bracketed, terminal groups are in braces. A string of capitals states the bases alone. e = 2'-O-(2-methoxyethyl) (MOE); [5mC] = 5-methylcytosine; d = 2'-deoxy (DNA) Where only a bound is given, the exact number is not on record here.

As to “custirsen: antisense oligonucleotide reducing clusterin expression, CAGCAGCAGAGTCTTCATCAT (SEQ ID NO: 3), phosphorothioate backbone, 2′-O-methoxyethyl wings (antisense e[5mC]*eA*eG*e[5mC]*dA*dG*dC*dA*dG*dA*dG*dT*dC*dT*dT*dC*dA*eT*e[5mC]*eA*eT; listed as Homo sapiens)”, in the data set with CLU [1], the “inhibition of CLU in human prostate cancer tissues” value is given as over 90%. The “apoptotic rates (subG1 fraction)” value in the data set on LNCaP cells was 17.4%. Further, in the data set on HSF-1 (LNCaP cells treated twice with 300 nM custirsen vs control ScrB ASO), the HSF-1 activity result is on record as “significantly decreased”.
In the case of `CC1(C)CC(=O)c2c(C(F)(F)F)nn(-c3ccc(C(N)=O)c(NC4CCC(O)CC4)c3)c2C1` (centres unmarked) [Hsp90i-2, 4-(6,6-Dimethyl-4-oxo-3-trifluoromethyl-4,5,6,7-tetrahydro-indazol-1-yl)-2-(4-hydroxy-cyclohexylamino)-benzamide], the HSF-1 activity result with HSF-1 (setting [7]) is “significantly induced”.
As to `CC1(C)CC(=O)c2c(C(F)(F)F)nn(-c3ccc(C(N)=O)c(NC4CCC(OC(=O)CN)CC4)c3)c2C1` (centres unmarked) [Hsp90i-2-PRO], the figures for the tumor volume in data set [2] (7 weeks post treatment) and in data set [2] (at 10 days) were 2483.6 mm^3 and 646.4 mm^3, respectively. In addition, in data set [2] (by day 57), the overall survival result was “all mice died or were euthanized”. Also, in data set [2] (serum, after 42 days), the “mean PSA level” value worked out at 527 ng/mL. Moreover, in data set [2] (sub-therapeutic dose of 25 mg/kg/day HSP90i-2-PRO), the “tumor volume / tumor progression” value is listed as “marginal, non-significant decreases”. For the same compound, the “effect on serum PSA levels” value in [2] (sub-therapeutic dose of 25 mg/kg/day, monotherapy) is on record as “no effect”. Further, in the data set with Hsp70, the “Hsp70 increase compared with vehicle treated tumor” value came out at 2.3 fold. Also, the “CLU expression increase compared with vehicle treated tumor” value in the data set with CLU [3] was 4 fold. The toxicity as monotherapy entry in data set [4] is recorded as “body weight loss”. In data set [5], the “LNCaP CRPC tumor progression” value is “inhibited”.
On to `C=CCNC1=C2C[C@@H](C)C[C@H](OC)[C@H](O)[C@@H](C)/C=C(\C)[C@H](OC(N)=O)[C@@H](OC)/C=C\C=C(/C)C(=O)NC(=CC1=O)C2=O` [Hsp90i-1, 17-allylamino-17-demethoxygeldanamycin], for which the toxicity as monotherapy entry in data set [6] is reported as “hepatotoxicity”. Further, the HSF-1 activity entry with HSF-1 (setting [7]) is “significantly induced”.
As to “control ScrB ASO: scrambled control oligonucleotide with 2′-O-(2-methoxy)ethyl modification, 5′-CAGCGCTGACAACAGTTTCAT-3′ (SEQ ID NO: 44) (2'-O-methoxyethyl modified, pattern not given here)”, the “apoptotic rates (subG1 fraction)” value in the data set on LNCaP cells amounted to 4.2%.

(Values after patent US9457045B2, “Combination of anti-clusterin oligonucleotide with Hsp90 inhibitor for the treatment of prostate cancer” (The University of British Columbia, priority 2011, dated 2016).)
